Assay results from article PMC6973051, “Proline‐Rich Peptides with Improved Antimicrobial Activity against E. coli, K. pneumoniae, and A. baumannii” (Chemmedchem, 2019).
Ends that are not written are not given here.

test system: E. coli BW25113; assay type: cell-based, Escherichia coli; conditions: BW25113, 18 h
Excerpt: The following bacterial strains were used: Escherichia coli BW25113, E. coli BW25113ΔsbmA (JW0368‐1, KEIO collection21); Acinetobacter baumannii ATCC 19606, Klebsiella pneumoniae ATCC 700603, Pseudomonas aeruginosa ATCC 27853 and Staphylococcus aureus ATCC 25923. The pathogenic E. coli EURL‐VTEC A07, E. coli EURL‐VTEC C07, E. coli SSI‐NN14, E. coli EA22, E. coli SSI‐OO15 and E. coli C679‐12 strains were generously provided by the European Union Reference Laboratory for E. coli, Department of Food Safety, Nutrition and Veterinary Public Health, Istituto Superiore di Sanità, Rome, Italy. All the strains were grown overnight in Müller‐Hinton broth (MHB, Difco) at 37 °C, with shaking (140 rpm). The day after, the overnight bacterial cultures were diluted approx. 1 : 40 in fresh MHB and incubated at 37 °C with shaking (140 rpm) until an OD600nm of ≈0.3 was reached. E. coli BW25113ΔsbmA was grown in the presence of 50 μg mL^−1 kanamycin.
Peptides were diluted in 100 μL of MHB to the concentration of 128 μM, dispensed in the first wells of a 96‐wells microtiter plate (round‐bottom) and serially two‐fold diluted with MHB into successive wells in a final volume of 50 μl. Subsequently, 50 μL of a bacterial suspension (5×10^5 CFU mL^−1) were added to each well, halving the final concentration of bacteria and peptides. Bacteria were added to MHB only as bacterial growth‐control, whereas 100 μl of MHB were used to check the medium sterility. The plate was incubated overnight at 37 °C (≈18 hours) and sealed with parafilm to minimise evaporation. The MIC was calculated as the first clear well without bacterial growth. If barely detectable growth was present, the OD600nm of the plate was measured by a multiplate reader Tecan (software Sunrise). The MIC was then calculated as the well whose OD620 was≤1 % of that of the untreated growth control.

Row | Substance | MIC [µM]
1 | RFGPPIRRPPIRPPFYPG-NH2 [R3G] | 64
2 | RFRPPIRRPPIEPPFYPG-NH2 [R12E] | >64
3 | RFRPPIRRAPIRPPFYPG-NH2 (C-terminus assumed) [P9A] | >64
4 | RFRSPIRRPPIRPPFYPG-NH2 (C-terminus assumed) [P4S] | 16
5 | RFRPPIRRPSIRPPFYPG-NH2 [P10S] | 64
6 | RFRPPIRRPPIPPPFYPG-NH2 [R12P] | >64
7 | RFRPPWRRPPIRPPFYPG-NH2 (C-terminus assumed) [I6W] | 8
8 | RFRPPERRPPIRPPFYPG-NH2 (C-terminus assumed) [I6E] | >64
9 | RFRPPISRPPIRPPFYPG-NH2 [R7S] | >64
10 | RFRPPIRRPPIRGPFYPG-NH2 [P13G] | >64
11 | RFRAPIRRPPIRPPFYPG-NH2 (C-terminus assumed) [P4A] | 24
12 | RERPPIRRPPIRPPFYPG-NH2 (C-terminus assumed) [F2E] | >64
13 | RFRPPIRRPPIRPPSYPG-NH2 (C-terminus assumed) [F15S] | 64
14 | RFRPPIRRPWIRPPFYPG-NH2 [P10W] | 32
15 | RFRPPIRRPPIRPEFYPG-NH2 [P14E] | >64
16 | RFRPPIRRPPIRPPGYPG-NH2 (C-terminus assumed) [F15G] | 32
17 | RFRPPARRPPIRPPFYPG-NH2 (C-terminus assumed) [I6A] | 64
18 | RFRPPIPRPPIRPPFYPG-NH2 [R7P] | >64
19 | RFRPEIRRPPIRPPFYPG-NH2 (C-terminus assumed) [P5E] | >64
20 | RFRPPIRRFPIRPPFYPG-NH2 (C-terminus assumed) [P9F] | 16
21 | RFRPPIWRPPIRPPFYPG-NH2 [R7W] | 64
22 | RFRPPIRRPAIRPPFYPG-NH2 (C-terminus assumed) [P10A] | >64
23 | RFRPWIRRPPIRPPFYPG-NH2 (C-terminus assumed) [P5W] | 16
24 | RFRPPIRPPPIRPPFYPG-NH2 [R8P] | >64
25 | RFRPPIRRPPIRSPFYPG-NH2 [P13S] | 64
26 | RFRPAIRRPPIRPPFYPG-NH2 (C-terminus assumed) [P5A] | 64

Row | Substance | MIC [µM]
27 | RFPPPIRRPPIRPPFYPG-NH2 [R3P] | 64
28 | RFFPPIRRPPIRPPFYPG-NH2 [R3F] | 64
29 | RFRPPIRRPPIRPPFFPG-NH2 [Y16F] | 16
30 | RFRPPIRGPPIRPPFYPG-NH2 [R8G] | >64
31 | RARPPIRRPPIRPPFYPG-NH2 (C-terminus assumed) [F2A] | 32
32 | RFRPPIRRPPPRPPFYPG-NH2 (C-terminus assumed) [I11P] | >64
33 | RFRPPIRRPPIRPPFYSG-NH2 [P17S] | 16
34 | RFRPPFRRPPIRPPFYPG-NH2 (C-terminus assumed) [I6F] | 16
35 | RFRPPIRRPEIRPPFYPG-NH2 (C-terminus assumed) [P10E] | >64
36 | RFRPPIRRPPIWPPFYPG-NH2 [R12W] | >64
37 | RFRPPIRRPPIRPPFYPG-NH2 [wt (SPOT form), reference compound] | 32
38 | RWRWPIRRPPIRPPFYRG-NH2 [278 (SPOT form)] | 4
39 | RFRPPIREPPIRPPFYPG-NH2 [R8E] | >64
40 | RFRPPIRRPPIRPPPYPG-NH2 (C-terminus assumed) [F15P] | >64
41 | RFRPPIRRPPIRPSFYPG-NH2 [P14S] | 64
42 | RFSPPIRRPPIRPPFYPG-NH2 [R3S] | >64
43 | RFRPPRRRPPIRPPFYPG-NH2 (C-terminus assumed) [I6R] | 16
44 | RFRPPIRRPPIRPPFYRG-NH2 [258 (SPOT form)] | 8
45 | RFRPPIRRPPFRPPFYPG-NH2 (C-terminus assumed) [I11F] | 32
46 | RFRPPIRRPPARPPFYPG-NH2 (C-terminus assumed) [I11A] | >64
47 | RFRWPIRRPPIRPPFYRG-NH2 [272 (SPOT form)] | 4
48 | RFRGPIRRPPIRPPFYPG-NH2 (C-terminus assumed) [P4G] | 8
49 | RFREPIRRPPIRPPFYPG-NH2 (C-terminus assumed) [P4E] | 64
50 | RFRPPIRRPPIRPPFYAG-NH2 [P17A] | 16
51 | RFRPPIRRPPGRPPFYPG-NH2 (C-terminus assumed) [I11G] | >64
52 | RFRPPIRRPPIRPPEYPG-NH2 (C-terminus assumed) [F15E] | >64

Row | Substance | MIC [µM]
53 | RFRPPIRWPPIRPPFYPG-NH2 [R8W] | 32
54 | RFRPPIRRPPIRAPFYPG-NH2 [P13A] | >64
55 | RFAPPIRRPPIRPPFYPG-NH2 [R3A] | 64
56 | RFRPPIRRPPIRPRFYPG-NH2 [P14R] | 32
57 | RPRPPIRRPPIRPPFYPG-NH2 (C-terminus assumed) [F2P] | 64
58 | RFRPPIRRPPIAPPFYPG-NH2 [R12A] | >64
59 | RFRPPIRREPIRPPFYPG-NH2 (C-terminus assumed) [P9E] | >64
60 | RFRPPIRSPPIRPPFYPG-NH2 [R8S] | >64
61 | RFRPPIRRPPIRPPFAPG-NH2 [Y16A] | 64
62 | RFRPPIRRPPIRPAFYPG-NH2 [P14A] | >64
63 | RFRPPIGRPPIRPPFYPG-NH2 [R7G] | >64
64 | GFRPPIRRPPIRPPFYPG-NH2 [R1G] | 32
65 | RFRPPIRRPPIRPWFYPG-NH2 [P14W] | 16
66 | RFRPPIRAPPIRPPFYPG-NH2 [R8A] | >64
67 | RFRPGIRRPPIRPPFYPG-NH2 (C-terminus assumed) [P5G] | >64
68 | RFRPPIRRPPIRPPFSPG-NH2 [Y16S] | >64
69 | RFRPPIRRPPERPPFYPG-NH2 (C-terminus assumed) [I11E] | >64
70 | RFRPPIRRWPIRPPFYPG-NH2 (C-terminus assumed) [P9W] | 16
71 | RFRPPGRRPPIRPPFYPG-NH2 (C-terminus assumed) [I6G] | >64
72 | RFRPPIRRPGIRPPFYPG-NH2 [P10G] | >64
73 | FFRPPIRRPPIRPPFYPG-NH2 [R1F] | 64
74 | RFRPPIRRPPIRWPFYPG-NH2 [P13W] | 16
75 | RGRPPIRRPPIRPPFYPG-NH2 (C-terminus assumed) [F2G] | 16
76 | RFRPPIRRPPIRPPAYPG-NH2 (C-terminus assumed) [F15A] | 64
77 | RFRPRIRRPPIRPPFYPG-NH2 (C-terminus assumed) [P5R] | 16
78 | RFRPPIRRPFIRPPFYPG-NH2 [P10F] | 64

Row | Substance | MIC [µM]
79 | RFRPPIRRPPIRPPFRPG-NH2 [Y16R] | 16
80 | RFRPPIRRPPIRPPRYPG-NH2 (C-terminus assumed) [F15R] | 32
81 | RFRPPIRRPPIRFPFYPG-NH2 [P13F] | 32
82 | RFEPPIRRPPIRPPFYPG-NH2 [R3E] | >64
83 | RFRPPIRRRPIRPPFYPG-NH2 (C-terminus assumed) [P9R] | 8
84 | RFRPPIRRGPIRPPFYPG-NH2 (C-terminus assumed) [P9G] | >64
85 | RFRPPIRRPPIRPPFEPG-NH2 [Y16E] | >64
86 | RFRPFIRRPPIRPPFYPG-NH2 (C-terminus assumed) [P5F] | 32
87 | RFRPPIRRPPIRPPFPPG-NH2 [Y16P] | 64
88 | RFRPPIRRPPWRPPFYPG-NH2 (C-terminus assumed) [I11W] | 32
89 | RFRPPIRRPRIRPPFYPG-NH2 [P10R] | >64
90 | RRRPPIRRPPIRPPFYPG-NH2 (C-terminus assumed) [F2R] | 16
91 | RFRFPIRRPPIRPPFYPG-NH2 (C-terminus assumed) [P4F] | 8
92 | RFRPPIRFPPIRPPFYPG-NH2 [R8F] | >64
93 | RFRPPPRRPPIRPPFYPG-NH2 (C-terminus assumed) [I6P] | >64
94 | RFRPPIRRPPIRPGFYPG-NH2 [P14G] | >64
95 | RFRPPIRRPPIREPFYPG-NH2 [P13E] | >64
96 | EFRPPIRRPPIRPPFYPG-NH2 [R1E] | >64
97 | RWRRPIRRRPIRPPFWRG-NH2 [291 (SPOT form)] | 4
98 | PFRPPIRRPPIRPPFYPG-NH2 [R1P] | 64
99 | RFRPPIRRPPIRPPFYGG-NH2 [P17G] | 16
100 | RFRPPIRRPPIRRPFYPG-NH2 [P13R] | 64
101 | RFRPPIRRPPIFPPFYPG-NH2 [R12F] | >64
102 | RFRPPIRRPPRRPPFYPG-NH2 (C-terminus assumed) [I11R] | >64

same assay, conditions: single-substitution library by SPOT‐synthesis (unpurified); MHB, ≈18 hours, 37 °C; median of n≥3

Row | Substance | MIC [µM]
103 | RFRPPIRRPPIRPPFYPG-NH2 [wt (SPOT form), reference compound] | 16
